Test results reported in PMC10027881 (Scientific Reports, 2023).
Where two headings read alike, the source gives them in different places.

Columns and labels:
Nrf2 = Nrf2 expression by western blotting; assay type: cell-based, human
Experimental: (§1) Caco2 and hEL cells were cultured in a 100 mm^2 cell culture dish with MEM containing 10% FBS at 37 °C in a humidified atmosphere of 5% CO2. To determine the effects of the treatment conditions, hEL cells were incubated with various concentrations of B(a)P and G-Rg3 in MEM for 48 h. The cells were subjected to further analysis or harvested to prepare cell-free extracts.
(§2) hEL cells were washed using ice-cold PBS and then lysed using radioimmunoprecipitation assay buffer containing a protease inhibitor and phosphatase inhibitors. After protein quantification using a total protein assay kit, 30 µg of protein from each sample was separated by 12% SDS‒PAGE and transferred electrophoretically onto the PVDF membrane. The membranes were blocked using 5% skim milk and then incubated with primary antibodies overnight at 4 °C. After incubation with horseradish peroxidase-conjugated secondary antibody, enhanced chemiluminescent reagent was added to visualize the binding signals. The intensity of each protein band was quantified using ImageJ software.

[1] = test system: BPDE-DNA adducts in hEL cells; assay: BPDE-DNA adduct formation (ELISA kit); assay type: cell-based, human; conditions: for BPDE-DNA adduct level: 10 µM B(a)P cotreatment with 10 µM G-Rg3, 48 h; for BPDE-DNA adducts: B(a)P and G-Rg3 cotreatment
Experimental: After treatment for 48 h, DNA was extracted from hEL cells using the QIAamp DNA Mini Kit according to the manufacturer’s protocol. BPDE-DNA adduct formation was detected using the BPDE-DNA adduct ELISA kit. The relative BPDE-DNA adduct levels were measured using a microplate reader for absorbance at 450 nm.

hEL cells = assay: Cell viability (MTS) assay; assay type: cell-based, human; conditions: compound alone, 0-20 µM, 48 h
Experimental: Caco2 and hEL cells were cultured in a 100 mm^2 cell culture dish with MEM containing 10% FBS at 37 °C in a humidified atmosphere of 5% CO2. […] The cells were subjected to further analysis or harvested to prepare cell-free extracts.
A commercially available MTS assay kit was used, and cells were subjected to the standard protocol followed by measurement at 490 nm wavelength with a microplate reader.

GST [2] = assay: GST activity assay kit; assay type: cell-based, human
Experimental: hEL cells were seeded in 96-well plates at a density of 1 × 10^4 cells per well and treated with 10 µM B(a)P in the absence or presence of 10 µM G-Rg3 for 48 h. GST activity was measured using a commercial GST activity assay kit according to the manufacturer’s protocols. The relative activation of GST was measured by using a microplate reader for absorbance at 450 nm.

[3] = test system: lung tumors induced by B(a)P in A/J mice; assay: B(a)P-induced lung tumorigenesis in A/J mice, tumor load; assay type: in vivo; conditions: G-Rg3 study, 20-weeks treatment; control 1.63 ± 0.40
Experimental: The mice were sacrificed by CO2 asphyxiation after the 20th week of red ginseng treatment.
(§3) All experiments were performed in accordance with relevant guidelines and regulations, and the study was conducted in accordance with Animal Research: Reporting of in vivo Experiments (ARRIVE) guidelines. […] One week later, the mice were randomly divided into control and different treatment groups with 15 mice per group, and treatment was performed once every day via oral gavage. Following 20 weeks of treatment, the animals were sacrificed by CO2 asphyxiation. The lungs were collected and fixed for 24 h. Quantification of the surface tumor count and individual tumor size on each lung was performed under a dissecting microscope. The tumor volume (V) estimation was calculated using the following expression: V (mm^3) = 4/3πr^3, where r is the tumor diameter. The net sum of all the volumes of tumors in a mouse lung was the total tumor volume, with the mean total tumor volume per group represented the tumor load. Whole blood and intestine samples were collected and stored at − 80 °C for UPLC‒MS/MS assays. Serum was collected and analyzed for alanine transaminase (ALT) and serum creatinine (Cr) levels by an automatic biochemical analyzer to evaluate liver and kidney function.

[4] = UPLC-MS/MS levels of ginsenosides in blood/plasma and intestine after 20-weeks treatment; assay type: in vivo, A/J mice; conditions: for concentration at 20 weeks: A/J, mouse
Experimental: All experiments were approved by the laboratory animal ethics committee of Tongji Medical College, Huazhong University of Science and Technology (approval no. 2019; file no. 4587TH). All experiments were performed in accordance with relevant guidelines and regulations, and the study was conducted in accordance with Animal Research: Reporting of in vivo Experiments (ARRIVE) guidelines. Eight-week-old A/J mice were given an initial intraperitoneal injection of B(a)P in tricaprylin (100 mg/kg in 0.2 mL). One week later, the mice were randomly divided into control and different treatment groups with 15 mice per group, and treatment was performed once every day via oral gavage. Following 20 weeks of treatment, the animals were sacrificed by CO2 asphyxiation. The lungs were collected and fixed for 24 h. Quantification of the surface tumor count and individual tumor size on each lung was performed under a dissecting microscope. The tumor volume (V) estimation was calculated using the following expression: V (mm^3) = 4/3πr^3, where r is the tumor diameter. The net sum of all the volumes of tumors in a mouse lung was the total tumor volume, with the mean total tumor volume per group represented the tumor load. Whole blood and intestine samples were collected and stored at − 80 °C for UPLC‒MS/MS assays. Serum was collected and analyzed for alanine transaminase (ALT) and serum creatinine (Cr) levels by an automatic biochemical analyzer to evaluate liver and kidney function.
As described above, the collected samples were retrieved from cold storage, thawed, weighed, and placed in a test tube. To this, 0.5 µM phloridzin (internal standard) in 0.8 mL of methanol solution was added. Then, the tissue was homogenized using a Tissue-Tearor and the homogenate was subsequently transferred into a 1.5 mL microcentrifuge tube. The mixture was centrifuged for 15 min at 15,500 rpm. Following the removal of […] of the supernatant, nitrogen–based drying was performed. Two hundred microliters of methanol was used for reconstitution. Blood was collected and processed on the same lines and used as a reference for all measurements.

Caco-2 monolayer = assay: Transcellular transport across the Caco-2 monolayer; assay type: in vitro ADME; conditions: for Pb-a compared with Pa-b: no verapamil
Experimental: This assay was performed in accordance with an earlier study.
The cells were subjected to washing using HBSS and preincubation at 37 °C following 3 weeks of culture. […] Collection of 100 µL medium was performed at the indicated times (0, 15, 30, 45, 60, 90, and 120 min), and 100 µL HBSS was added to replenish this volume. These samples were stored at […] until UPLC‒MS/MS assays. The expression Papp = dQ/(dT × A × C0) was utilized to quantify the apparent unidirectional permeability for both the apical and basolateral sides and vice versa (Pa-b and Pb-a, respectively); dQ/dT represents the concentration change, A (0.6 cm^2) represents the monolayer surface area, and C0 represents the initial donor concentration. The efflux ratio was calculated as Pb-a/Pa-b, which represents the degree of efflux transport of the study drug.

GST [5] = assay: GST expression by western blotting; assay type: cell-based, human
Experimental: as §1, §2

[6] = Side effects in the model mice: body weight, plasma ALT and Cr; assay type: in vivo, A/J mice; conditions: G-Rg3 treatment groups vs control group
Experimental: as §3

Caco-2 cells = conditions: cited from earlier work
[7] = test system: rat pulmonary epithelial cells; parameters: method as in PMID 17357179; conditions: in the presence of verapamil; cited from earlier work
[8] = cited from earlier work
[9] = 10 µM B(a)P cotreatment with 10 µM G-Rg3, 48 h
[10] = verapamil 50 or 100 µM vs no verapamil
[11] = 10 µM B(a)P cotreatment with 10 µM G-Rg3

CC(C)=CCCC(C)(O)C1CCC2(C)C1C(O)CC1C3(C)CCC(OC4OC(CO)C(O)C(O)C4OC4OC(CO)C(O)C(O)C4O)C(C)(C)C3CCC12C (stereo not shown) [G-Rg3s, ginsenoside Rg3]
level of Nrf2 (Nrf2; B(a)P-G-Rg3 cotreatment): 117 ± 6.2%
BPDE-DNA adduct level [1]: 1.93 ± 0.48
BPDE-DNA adducts ([1]; control siRNA group): 1.8 ± 0.32
BPDE-DNA adducts ([1]; siNrf2 group): 3.6 ± 0.45
cytotoxicity on hEL cells (hEL cells): nontoxic
GST activity (GST [2]; [9]): 92.3 ± 6.5%
tumor load [3]: 0.81 ± 0.30 mm^3
plasma and intestine levels when verapamil was coadministered, in words ([4]; after 20-weeks treatment): followed a similar pattern
Pb-a compared with Pa-b (Caco-2 monolayer): significantly higher
average Pb-a after verapamil treatment (Caco-2 monolayer; [10]): significant decrease
transport (Pa-b) after verapamil treatment, in words (Caco-2 monolayer; [10]): followed a similar pattern
GST expression (GST [5]; [11]): 110 ± 11.1%

CC(C)=CCC[C@](C)(O)[C@H]1CC[C@]2(C)[C@@H]1[C@H](O)C[C@@H]1[C@@]3(C)CC[C@H](O[C@@H]4O[C@H](CO)[C@@H](O)[C@H](O)[C@H]4O[C@@H]4O[C@H](CO)[C@@H](O)[C@H](O)[C@H]4O)C(C)(C)[C@@H]3CC[C@]12C [G-Rg3, ginsenoside Rg3]
body weight loss or clinical signs of toxicity [6]: No significant body weight loss or clinical signs of toxicity

CC(C)=CCC[C@](C)(O[C@@H]1O[C@H](CO)[C@@H](O)[C@H](O)[C@H]1O)[C@H]1CC[C@]2(C)[C@@H]1[C@H](O)C[C@@H]1[C@@]3(C)CC[C@H](O)C(C)(C)[C@@H]3CC[C@]12C [Compound K]
intracellular levels spiked by a factor of (Caco-2 cells): 40

CC(C)=CCC[C@](C)(O[C@@H]1O[C@H](CO)[C@@H](O)[C@H](O)[C@H]1O)[C@H]1CC[C@]2(C)[C@@H]1[C@H](O)C[C@@H]1[C@@]3(C)CC[C@H](O)C(C)(C)[C@@H]3[C@@H](O[C@@H]3O[C@H](CO)[C@@H](O)[C@H](O)[C@H]3O)C[C@]12C [Rg1]
levels in rat pulmonary epithelial cells [7]: increased

CC(C)=CCCC(C)(O)C1CCC2(C)C1C(O)CC1C3(C)CCC(OC4OC(CO)C(O)C(O)C4OC4OC(CO)C(O)C(O)C4O)C(C)(C)C3CCC12C (stereo not shown) [G-Rg3r, ginsenoside Rg3]
level of Nrf2 (Nrf2; B(a)P-G-Rg3 cotreatment): 106 ± 9.5%
BPDE-DNA adduct level [1]: 1.87 ± 0.33
BPDE-DNA adducts ([1]; control siRNA group): 1.47 ± 0.21
BPDE-DNA adducts ([1]; siNrf2 group): 3.0 ± 0.21
cytotoxicity on hEL cells (hEL cells): nontoxic
GST activity (GST [2]; [9]): 96.3 ± 6.6%
tumor load [3]: 0.75 ± 0.29 mm^3
concentration at 20 weeks ([4]; intestine, oral, with verapamil coadministered (dose not stated), read-out: level in the intestine): 1350 ± 130 ng/g
concentration at 20 weeks ([4]; intestine, oral, read-out: level in the intestine): 530 ± 80 ng/g
concentration at 20 weeks ([4]; plasma, oral, with verapamil coadministered (dose not stated), read-out: plasma level): 1.17 ± 0.47 µM
concentration at 20 weeks ([4]; plasma, oral, read-out: plasma level): 0.44 ± 0.32 µM
Pa-b (apical to basolateral) (Caco-2 monolayer; 10 µM G-Rg3, 50 µmol/L verapamil): 0.73 ± 0.06
Pa-b (apical to basolateral) (Caco-2 monolayer; 10 µM G-Rg3, 100 µmol/L verapamil): 1.14 ± 0.09
Pa-b (apical to basolateral) (Caco-2 monolayer; 10 µM G-Rg3, no verapamil): 0.38 ± 0.06
Pb-a compared with Pa-b (Caco-2 monolayer): significantly higher
average Pb-a after verapamil treatment (Caco-2 monolayer; [10]): significant decrease
GST expression (GST [5]; [11]): 103.7 ± 15.5%

CC(C)=CC/C=C(\C)[C@H]1CC[C@]2(C)[C@@H]1[C@H](O)C[C@@H]1[C@@]3(C)CC[C@H](O[C@@H]4O[C@H](CO)[C@@H](O)[C@H](O)[C@H]4O[C@@H]4O[C@H](CO)[C@@H](O)[C@H](O)[C@H]4O)C(C)(C)[C@@H]3CC[C@]12C [Rg5]
ginsenoside in the blood ([4]; after 20-weeks KRGB treatment, oral): 0.0063 ± 0.0005 µg/mL

c1ccc2c(c1)cc1ccc3cccc4ccc2c1c34 [B(a)P, benzo(a)pyrene, reference compound]
level of Nrf2 (Nrf2; B(a)P only, G-Rg3r experiment): 51.3 ± 6.8%
level of Nrf2 (Nrf2; B(a)P only, G-Rg3s experiment): 41 ± 9.8%
GST activity (GST [2]; 10 µM B(a)P only, 48 h): 35.7 ± 7.8%
GST expression (GST [5]; 10 µM B(a)P alone, G-Rg3r groups): 59.7 ± 8.2%
GST expression (GST [5]; 10 µM B(a)P alone, G-Rg3s groups): 39 ± 4.5%

CC(C)=CCC[C@](C)(O)[C@H]1CC[C@]2(C)[C@@H]1[C@H](O)C[C@@H]1[C@@]3(C)CC[C@H](O[C@@H]4O[C@H](CO)[C@@H](O)[C@H](O)[C@H]4O)C(C)(C)[C@@H]3CC[C@]12C [ginsenoside Rh2]
bioavailability ([8]; initial value, without cyclosporine A): 1%
bioavailability ([8]; with cyclosporine A treatment): more than 30%
